Results from US20210179577A1, “AROMATIC SULFONAMIDE DERIVATIVES FOR THE TREATMENT OF ISCHEMIC STROKE” (Bayer Aktiengesellschaft, priority 2017, published 2021).

Key:
Assay type in all cases: cell-based
human P2X4 = molecular target: T1, human P2X4 (Homo sapiens, UniProt Q99571); experiment: Human P2X4 HEK Cell Electrophysiology Assay A (PatchLiner); design: expressed in transfected cells; host or cells: HEK293; settings: ATP 5 μM, -80 mV; read-out: Human P2X4 HEK Cells (PatchLiner Electrophysiology) avg IC50
T1 sequence (Q99571 1-388): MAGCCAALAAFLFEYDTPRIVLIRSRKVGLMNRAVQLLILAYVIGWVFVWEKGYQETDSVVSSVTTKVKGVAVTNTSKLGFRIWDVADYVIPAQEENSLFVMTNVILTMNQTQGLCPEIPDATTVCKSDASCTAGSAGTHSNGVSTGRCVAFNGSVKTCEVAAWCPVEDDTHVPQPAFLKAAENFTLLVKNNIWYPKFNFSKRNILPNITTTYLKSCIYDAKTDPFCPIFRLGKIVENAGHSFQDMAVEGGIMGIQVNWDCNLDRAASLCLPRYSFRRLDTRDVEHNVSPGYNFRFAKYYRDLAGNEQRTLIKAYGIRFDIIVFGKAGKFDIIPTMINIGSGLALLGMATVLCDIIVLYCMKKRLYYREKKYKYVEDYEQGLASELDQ
Method: HEK293 cells stably expressing human P2X4 were seeded in T75 cell culturing flasks at a density of 7*106 cells and incubated overnight. P2X4 function was assayed using the automated patch clamp platform PatchLiner (Nanion) in single hole mode. Composition of extracellular buffer was (in mM) NaCl 145, KCl 4, HEPES 10, CaCl2) 1, MgCl2 0.5, D-glucose monohydrate 10, pH=7.4. The intracellular buffer contained (in mM): CsF 135, EGTA 1, HEPES 10, NaCl 10, pH 7.2. On the day of the assay, cells were harvested using Accumax (Sigma) and were resuspended in extracellular buffer. The ligand agonist, adenosine 5′-trisphosphate (ATP, 5 μM) was added in a volume of 5 μL, directly washed off by extracellular buffer (40 μL). The cells were voltage clamped at −80 mV and ligand was applied every 5 min. for 20 min. Over this period the agonist response was stable and compounds were measured in single concentration per well mode. Compounds diluted in extracellular buffer (final assay DMSO concentration 0.3%) were added in a volume of 40 μL and allowed to incubate for 8 min at room temperature. The data was analyzed based on the decrease in peak current amplitude and normalized to the agonist control. Mean values were plotted in Excel XLFit to determine IC50 values, percentage of maximal inhibition and the Hill coefficients.

mouse P2X4 = molecular target: T2, mouse P2X4 (Mus musculus, UniProt Q9JJX6); experiment: FLIPR assay, mouse P2X4 1321N1 Astrocytoma Cells; settings: agonist Mg-ATP at EC80
T2 construct: expressed in transfected cells; host or cells: 1321N1 astrocytoma cells
T2 sequence (Q9JJX6 1-388): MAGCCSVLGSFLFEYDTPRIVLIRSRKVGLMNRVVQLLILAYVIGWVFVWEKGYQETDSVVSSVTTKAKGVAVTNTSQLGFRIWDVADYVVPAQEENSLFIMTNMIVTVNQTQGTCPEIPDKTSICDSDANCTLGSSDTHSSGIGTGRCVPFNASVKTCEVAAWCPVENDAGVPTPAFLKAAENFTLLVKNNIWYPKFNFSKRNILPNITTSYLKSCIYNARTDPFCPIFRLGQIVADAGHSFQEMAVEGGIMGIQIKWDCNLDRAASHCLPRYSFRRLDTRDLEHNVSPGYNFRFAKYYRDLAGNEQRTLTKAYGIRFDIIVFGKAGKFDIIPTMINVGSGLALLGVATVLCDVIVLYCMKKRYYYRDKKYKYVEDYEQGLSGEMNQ
Method: (§1) 1321N1 Astrocytoma cells stably expressing human P2X4 or rat P2X4 or mouse P2X4 were plated in Collagen ITO-treated microplate at a seeding density of 10000 cells/well and incubated overnight. P2X4 function was assessed by measuring intracellular calcium changes using the calcium-chelating dye Fluo8-AM (Molecular Devices) on a fluorescent imaging plate reader (FLEX/FLIPR station; Molecular Devices). On the day of the assay, the medium was removed and the cells were incubated for 30 min at […] and 5% CO2 in 30 μL of dye buffer (Hank's balanced salt solution, 10 mM HEPES, 1.8 mM CaCl2, 1 mM MgCl2, 2 mM probenecid, 5 mM D-glucose monohydrate, 5 μM Fluo8-AM, pH=7.4). Compounds diluted in probenecid buffer (Hank's balanced salt solution, 10 mM HEPES, 1.8 mM CaCl2, 1 mM MgCl2, 2 mM probenecid, 5 mM D-glucose monohydrate, pH=7.4) were added in a volume of 10 μL and allowed to incubate for 30 min at room temperature. The final assay DMSO concentration was 0.25%. The agonist, Mg-ATP (Sigma), was added in a volume of 10 μL at a concentration representing the EC80 value. EC80 was determined to be 0.5 μM for human and mouse P2X4 and 5 μM for rat P2X4. The fluorescence was measured for an interval of 120 sec at 2 sec intervals. The excitation and emission wavelengths used to monitor fluorescence were 470-495 nm and 515-575 nm, respectively. The data was analyzed based on the increase in peak relative fluorescence units (RFU) compared to the basal fluorescence and the data was normalized to the agonist control. The compounds were tested in triplicates per plate and mean values were plotted in Excel XLFit to determine IC50 values, percentage of maximal inhibition and the Hill coefficients.

rat P2X4 = molecular target: T3, rat P2X4 (Rattus norvegicus, UniProt P51577); experiment: FLIPR assay, rat P2X4 1321N1 Astrocytoma Cells; settings: agonist Mg-ATP at EC80
T3 construct: expressed in transfected cells; host or cells: 1321N1 astrocytoma cells
T3 sequence (P51577 1-388): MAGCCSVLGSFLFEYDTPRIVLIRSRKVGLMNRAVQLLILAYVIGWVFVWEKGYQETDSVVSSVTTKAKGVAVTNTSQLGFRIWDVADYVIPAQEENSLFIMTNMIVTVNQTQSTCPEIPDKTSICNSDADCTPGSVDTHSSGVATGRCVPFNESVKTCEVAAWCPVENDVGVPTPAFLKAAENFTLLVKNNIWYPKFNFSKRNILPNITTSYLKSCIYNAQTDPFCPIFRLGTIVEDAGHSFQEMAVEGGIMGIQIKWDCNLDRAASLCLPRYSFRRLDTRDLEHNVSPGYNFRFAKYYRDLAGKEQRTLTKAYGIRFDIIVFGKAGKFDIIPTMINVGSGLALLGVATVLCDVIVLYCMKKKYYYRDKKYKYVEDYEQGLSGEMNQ
Method: as §1

Row | IC50 (human P2X4) [nM] | IC50 (mouse P2X4) [nM] | Mouse P2X4 1321N1 Astrocytoma Cells (FLIPR Assay) avg Efficacy (mouse P2X4) [%] | IC50 (rat P2X4) [nM] | Rat P2X4 1321N1 Astrocytoma Cells (FLIPR Assay) avg Efficacy (rat P2X4) [%] | SMILES
1 | 320 | – | – | – | – | NS(=O)(=O)c1cc(NC(=O)Cc2ccccc2Cl)cnc1-n1cc(C(F)(F)F)cn1 [Example 380, 2-(2-Chlorophenyl)-N-{5-sulfamoyl-6-[4-(trifluoromethyl)-1H-pyrazol-1-yl]pyridin-3-yl}acetamide]
2 | 111 | 43 | 69 | 71 | 57 | NS(=O)(=O)c1cc(NC(=O)Cc2ccccc2Cl)ccc1-n1cc(C(F)(F)F)cn1 [Example 19, 2-(2-Chlorophenyl)-N-{3-sulfamoyl-4-[4-(trifluoromethyl)-1H-pyrazol-1-yl]phenyl}acetamide]
3 | 57 | 26 | 87 | 325 | 99 | NS(=O)(=O)c1cc(NC(=O)Cc2ccccc2Cl)ccc1-c1cnn(C(F)F)c1 [Example 326, 2-(2-Chlorophenyl)-N-{4-[1-(difluoromethyl)-1H-pyrazol-4-yl]-3-sulfamoylphenyl}acetamide]
4 | 138 | 37 | 87 | 308 | 87 | N#Cc1cnn(-c2ccc(NC(=O)Cc3ccccc3Cl)cc2S(N)(=O)=O)c1 [Example 39, 2-(2-Chlorophenyl)-N-[4-(4-cyano-1H-pyrazol-1-yl)-3-sulfamoylphenyl]acetamide]
